What was measured:
DGKα = DGKα (Homo sapiens, UniProt P23743); experiment: DGKα biochemical assay (ADP-Glo); conditions: read-out: DGK α IC50
Protocol: (§1) Compounds of the present invention were prepared into 10 mM DMSO solution and 10 nL of stock was transferred into 384 plates (Optiplate 384 plate) using Echo550. DMSO was used as high control, and ATP substrate buffer was used as a low control. A 1× enzyme assay buffer was prepared (Hepes, pH 7.0 25 mM, BSA 0.05%, Triton-X100 0.002%, CaCl2) 1 μM, MgCl2 10 mM, DTT 2 mM). […] OAG (1-oleoyl-2-acetyl-sn-glycerol, 25 mg/ml, Avanti 8001000) and PS (10 mg/ml, Avanti 840032P) were mixed at the ratio of 1:2. A 1× substrate solution was prepared with 1× assay buffer by 100-fold dilution. The substrate solution was sonicated on ice for 1 min. The pure ATP was added to the substrate solution (DGKα:400 μM). 5 μL of the enzyme solution were added to the 384 well plate, and the plate was spun for 1 min at 1000 rpm and incubated for 30 mins at RT. 5 μL of 1× substrate solution were added to the 384 well plate, the plate was spun and then incubated for 45 mins at RT. 10 μL ADP-Glo […] was added to stop the assay. After 60 mins at RT, 20 μL ADP-Glo Detection buffer was added as the final step. Plate was read after 45 min incubation at RT.
(§2) Data analysis was performed by calculating the […] using following the formula:
(§3) [formula] • High control (Hc): DMSO/DGKα(DGKζ)/Substrate/ATP/ADP-Glo • Low Control (Lc): ATP/ADP-Glo

DGKζ = molecular target: T1, DGKζ (Homo sapiens, UniProt Q13574); experiment: DGKζ biochemical assay (ADP-Glo); conditions: read-out: DGK ζ IC50
T1 construct: purchased Carna 12-110
Protocol: as §1, §2, §3

T1 sequence (Q13574 1-929 isoform Q13574-4): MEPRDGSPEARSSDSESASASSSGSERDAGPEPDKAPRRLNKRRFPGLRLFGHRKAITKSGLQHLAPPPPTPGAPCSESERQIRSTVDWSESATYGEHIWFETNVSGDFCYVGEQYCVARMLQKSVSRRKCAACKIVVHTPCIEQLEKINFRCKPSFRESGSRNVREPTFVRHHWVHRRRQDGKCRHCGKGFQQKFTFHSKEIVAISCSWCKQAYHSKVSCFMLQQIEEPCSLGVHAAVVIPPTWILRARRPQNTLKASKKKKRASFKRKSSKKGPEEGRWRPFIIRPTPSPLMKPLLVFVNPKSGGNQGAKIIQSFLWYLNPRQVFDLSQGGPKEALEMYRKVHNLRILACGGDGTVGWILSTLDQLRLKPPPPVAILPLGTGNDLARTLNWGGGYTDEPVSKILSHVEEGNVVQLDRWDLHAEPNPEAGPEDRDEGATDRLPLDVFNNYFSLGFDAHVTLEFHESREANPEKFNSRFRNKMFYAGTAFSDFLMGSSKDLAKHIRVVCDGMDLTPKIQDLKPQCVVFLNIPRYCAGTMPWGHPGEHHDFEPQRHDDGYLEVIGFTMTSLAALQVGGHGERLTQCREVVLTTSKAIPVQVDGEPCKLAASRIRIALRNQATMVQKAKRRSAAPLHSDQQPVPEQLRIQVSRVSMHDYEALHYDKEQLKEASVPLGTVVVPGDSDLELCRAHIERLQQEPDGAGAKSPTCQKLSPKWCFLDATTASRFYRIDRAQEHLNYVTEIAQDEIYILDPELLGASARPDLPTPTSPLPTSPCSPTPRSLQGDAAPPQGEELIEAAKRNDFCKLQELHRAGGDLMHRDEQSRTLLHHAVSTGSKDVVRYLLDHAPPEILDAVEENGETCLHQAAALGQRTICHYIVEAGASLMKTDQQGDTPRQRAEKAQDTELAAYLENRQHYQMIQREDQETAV
Sequence of DGKα (P23743 whole entry): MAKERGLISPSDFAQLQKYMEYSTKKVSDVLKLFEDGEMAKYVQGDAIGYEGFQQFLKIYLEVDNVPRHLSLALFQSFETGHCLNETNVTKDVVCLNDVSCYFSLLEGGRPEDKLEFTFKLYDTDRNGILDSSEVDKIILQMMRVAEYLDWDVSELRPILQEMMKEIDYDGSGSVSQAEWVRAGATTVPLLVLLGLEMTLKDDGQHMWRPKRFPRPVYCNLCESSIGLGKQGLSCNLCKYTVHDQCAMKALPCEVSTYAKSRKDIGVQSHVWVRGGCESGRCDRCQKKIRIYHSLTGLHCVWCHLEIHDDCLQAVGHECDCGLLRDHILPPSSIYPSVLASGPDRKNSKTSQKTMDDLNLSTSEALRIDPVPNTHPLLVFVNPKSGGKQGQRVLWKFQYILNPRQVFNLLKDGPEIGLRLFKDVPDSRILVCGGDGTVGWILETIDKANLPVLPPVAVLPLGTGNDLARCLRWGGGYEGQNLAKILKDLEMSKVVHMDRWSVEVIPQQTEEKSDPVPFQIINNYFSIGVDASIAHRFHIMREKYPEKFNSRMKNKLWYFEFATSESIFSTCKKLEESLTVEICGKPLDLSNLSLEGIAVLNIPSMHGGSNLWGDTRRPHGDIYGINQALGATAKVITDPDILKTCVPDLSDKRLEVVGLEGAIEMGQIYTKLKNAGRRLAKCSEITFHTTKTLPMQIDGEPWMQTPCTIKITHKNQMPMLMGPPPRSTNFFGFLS

IC50 (DGKα) [nM] | IC50 (DGKζ) [nM] | Structure (SMILES)
≥ 1000 | ≥ 1000 | Cn1c(=O)cc(N(C)[C@H]2CC[C@H](N(CC3COC3)c3ccc(F)cc3O)CC2)c2nc(C#N)ccc21 [Example 3BB, trans-8-((4-((4-fluoro-2-hydroxyphenyl)(oxetan-3-ylmethyl)amino)cyclohexyl)(methyl)amino)-5-methyl-6-oxo-5,6-dihydro-1,5-naphthyridine-2-carbonitrile]
10 to 100 | ≥ 1000 | Cn1c(=O)c(C#N)c(N(C)[C@H]2CC[C@H](N(c3ccccc3)C3CC3)CC2)c2nc(Cl)ccc21 [Example 3C, trans-6-Chloro-4-((4-(cyclopropyl(phenyl)amino)cyclohexyl)(methyl)amino)-1-methyl-2-oxo-1,2-dihydro-1,5-naphthyridine-3-carbonitrile]
100 to 1000 | ≥ 1000 | Cn1c(=O)c(C#N)c(N(C)[C@H]2CC[C@@H](N(c3ccc(F)cc3F)C3CC3)CC2)c2nc(Cl)ccc21 [Example 3CC, cis-6-Chloro-4-[[4-(N-cyclopropyl-2,4-difluoro-anilino)cyclohexyl]-methyl-amino]-1-methyl-2-oxo-1,5-naphthyridine-3-carbonitrile]
10 to 100 | 100 to 1000 | Cn1c(=O)c(C#N)c(N(C)[C@H]2CC[C@H](N(c3ccccc3O)C3CC3)CC2)c2nc(Cl)ccc21 [Example 3D, 6-Chloro-4-((trans-4-(cyclopropyl(2-hydroxyphenyl)amino)cyclohexyl)(methyl)amino)-1-methyl-2-oxo-1,2-dihydro-1,5-naphthyridine-3-carbonitrile]
10 to 100 | ≥ 1000 | COc1ccc(N(C2CC2)[C@H]2CC[C@H](N(C)c3c(C#N)c(=O)n(C)c4ccc(Cl)nc34)CC2)cc1 [Example 3E, trans-6-chloro-4-((4-(cyclopropyl(4-methoxyphenyl)amino)cyclohexyl)(methyl)amino)-1-methyl-2-oxo-1,2-dihydro-1,5-naphthyridine-3-carbonitrile]
10 to 100 | 100 to 1000 | Cn1c(=O)c(C#N)c(N(C)[C@H]2CC[C@H](N(c3ccc(F)cc3)C3CC3)CC2)c2nc(Cl)ccc21 [Example 3F, trans-6-chloro-4-((4-(cyclopropyl(4-fluorophenyl)amino)cyclohexyl) (methyl)amino)-1-methyl-2-oxo-1,2-dihydro-1,5-naphthyridine-3-carbonitrile]
10 to 100 | ≥ 1000 | Cn1c(=O)c(C#N)c(N(C)[C@H]2CC[C@H](N(c3ccc(F)cc3O)C3CC3)CC2)c2nc(Cl)ccc21 [Example 3G, trans-6-chloro-4-((4-(cyclopropyl(4-fluoro-2-hydroxyphenyl)amino)cyclohexyl)(methyl)amino)-1-methyl-2-oxo-1,2-dihydro-1,5-naphthyridine-3-carbonitrile]
100 to 1000 | 10 to 100 | COc1cc(F)ccc1N(C1CC1)[C@H]1CC[C@@H](N(C)c2c(C#N)c(=O)n(C)c3ccc(Cl)nc23)CC1 [Example 3H, cis-6-chloro-4-((4-(cyclopropyl(4-fluoro-2-methoxyphenyl)amino)cyclohexyl)(methyl)amino)-1-methyl-2-oxo-1,2-dihydro-1,5-naphthyridine-3-carbonitrile]
10 to 100 | 100 to 1000 | Cn1c(=O)c(C#N)c(N(C)[C@H]2CC[C@H](N(c3ccc(F)cn3)C3CC3)CC2)c2nc(Cl)ccc21 [Example 3I]
10 to 100 | 100 to 1000 | COc1ccc(N(C2CC2)[C@H]2CC[C@H](N(C)c3c(C#N)c(=O)n(C)c4ccc(Cl)nc34)CC2)nc1 [Example 3J, trans-6-chloro-4-((4-(cyclopropyl(5-methoxypyridin-2-yl)amino)cyclohexyl)(methyl)amino)-1-methyl-2-oxo-1,2-dihydro-1,5-naphthyridine-3-carbonitrile]
10 to 100 | 100 to 1000 | Cn1c(=O)c(C#N)c(N(C)[C@H]2CC[C@H](N(CC3CC3)c3ccc(F)cn3)CC2)c2nc(Cl)ccc21 [Example 3L, trans-6-chloro-4-((4-((cyclopropylmethyl)(5-fluoropyridin-2-yl)amino)cyclohexyl)(methyl)amino)-1-methyl-2-oxo-1,2-dihydro-1,5-naphthyridine-3-carbonitrile]

Source: patent US20230271954A1 (Gossamer Bio Services, Inc., priority 2020, published 2023)
